Experimental data as given in the NIST ThermoML archive (doi:10.1016/j.jct.2017.02.023).
Numbers after ± are expanded uncertainties.

Assays:
[1] = xn = mol fraction of the nth substance listed; conditions: 81.5 kPa, Liquid, Vibrating tube method, x1 = 1
[2] = refractive index (Na D-line) (dimensionless); xn = mol fraction of the nth substance listed; conditions: 81.5 kPa, Liquid, Standard Abbe refractometry, x1 = 1
[3] = 81.5 kPa, Liquid, Vibrating tube method
[4] = refractive index (Na D-line) (dimensionless); conditions: 81.5 kPa, Liquid, Standard Abbe refractometry

Row | Compound | mass density ([1]; 298.15 K) [kg/m3] | mass density ([1]; 308.15 K) [kg/m3] | mass density ([1]; 318.15 K) [kg/m3] | mass density ([1]; 328.15 K) [kg/m3] | refractive index ([2]; 298.15 K) | refractive index ([2]; 308.15 K) | refractive index ([2]; 318.15 K) | refractive index ([2]; 328.15 K) | mass density ([3]; 298.15 K) [kg/m3] | mass density ([3]; 308.15 K) [kg/m3] | mass density ([3]; 318.15 K) [kg/m3] | mass density ([3]; 328.15 K) [kg/m3] | refractive index ([4]; 298.15 K) | refractive index ([4]; 308.15 K) | refractive index ([4]; 318.15 K) | refractive index ([4]; 328.15 K)
1 | CCC(C)O (centres undefined) [butan-2-ol] + CNC1CCCCC1 | 802.71 ± 1.6 | 794.2 ± 1.6 | 785.32 ± 1.6 | 775.52 ± 1.6 | 1.39544 ± 0.0016 | 1.39105 ± 0.0016 | 1.38646 ± 0.0016 | 1.38175 ± 0.0016 |  |  |  |  |  |  |  | 
2 | CNC1CCCCC1 [N-methylcyclohexylamine] |  |  |  |  |  |  |  |  | 865.2 ± 1.6 | 856.57 ± 1.6 | 847.67 ± 1.6 | 838.68 ± 1.6 | 1.45306 ± 0.0016 | 1.44812 ± 0.0016 | 1.4431 ± 0.0016 | 1.43809 ± 0.0016
3 | CCCC(C)O (centres undefined) [pentan-2-ol] + CNC1CCCCC1 | 805.37 ± 1.6 | 796.95 ± 1.6 | 788.38 ± 1.6 | 779.17 ± 1.6 | 1.4045 ± 0.0016 | 1.40029 ± 0.0016 | 1.39586 ± 0.0016 | 1.39126 ± 0.0016 |  |  |  |  |  |  |  | 
4 | CCCCCCC(C)O (centres undefined) [2-octanol] |  |  |  |  |  |  |  |  | 817.05 ± 1.6 | 809.43 ± 1.6 | 801.32 ± 1.6 | 793.06 ± 1.6 | 1.42483 ± 0.0016 | 1.42073 ± 0.0016 | 1.41648 ± 0.0016 | 1.41224 ± 0.0016
5 | CC(C)O [propan-2-ol] |  |  |  |  |  |  |  |  | 781.05 ± 1.6 | 772.41 ± 1.6 | 763.41 ± 1.6 | 753.12 ± 1.6 | 1.37511 ± 0.0016 | 1.37097 ± 0.0016 | 1.36665 ± 0.0016 | 1.36181 ± 0.0016
6 | CCC(C)O (centres undefined) [butan-2-ol] |  |  |  |  |  |  |  |  | 802.71 ± 1.6 | 794.2 ± 1.6 | 785.32 ± 1.6 | 775.52 ± 1.6 | 1.39544 ± 0.0016 | 1.39105 ± 0.0016 | 1.38646 ± 0.0016 | 1.38175 ± 0.0016
7 | CCCC(C)O (centres undefined) [pentan-2-ol] |  |  |  |  |  |  |  |  | 805.37 ± 1.6 | 796.95 ± 1.6 | 788.38 ± 1.6 | 779.17 ± 1.6 | 1.4045 ± 0.0016 | 1.40029 ± 0.0016 | 1.39586 ± 0.0016 | 1.39126 ± 0.0016
8 | CCCCCC(C)O (centres undefined) [2-heptanol] |  |  |  |  |  |  |  |  | 813.36 ± 1.6 | 805.72 ± 1.6 | 797.65 ± 1.6 | 789.38 ± 1.6 | 1.41924 ± 0.0016 | 1.41505 ± 0.0016 | 1.41076 ± 0.0016 | 1.40647 ± 0.0016
9 | CCCCCC(C)O (centres undefined) [2-heptanol] + CNC1CCCCC1 | 813.36 ± 1.6 | 805.72 ± 1.6 | 797.65 ± 1.6 | 789.38 ± 1.6 | 1.41924 ± 0.0016 | 1.41505 ± 0.0016 | 1.41076 ± 0.0016 | 1.40647 ± 0.0016 |  |  |  |  |  |  |  | 
10 | CC(C)O [propan-2-ol] + CNC1CCCCC1 | 781.05 ± 1.6 | 772.41 ± 1.6 | 763.41 ± 1.6 | 753.12 ± 1.6 | 1.37511 ± 0.0016 | 1.37097 ± 0.0016 | 1.36665 ± 0.0016 | 1.36181 ± 0.0016 |  |  |  |  |  |  |  | 
11 | CCCCC(C)O (centres undefined) [2-hexanol] |  |  |  |  |  |  |  |  | 810.17 ± 1.6 | 801.94 ± 1.6 | 793.57 ± 1.6 | 784.6 ± 1.6 | 1.41296 ± 0.0016 | 1.40853 ± 0.0016 | 1.40413 ± 0.0016 | 1.3996 ± 0.0016
12 | CCCCC(C)O (centres undefined) [2-hexanol] + CNC1CCCCC1 | 810.17 ± 1.6 | 801.94 ± 1.6 | 793.57 ± 1.6 | 784.6 ± 1.6 | 1.41296 ± 0.0016 | 1.40853 ± 0.0016 | 1.40413 ± 0.0016 | 1.3996 ± 0.0016 |  |  |  |  |  |  |  | 
13 | CCCCCCC(C)O (centres undefined) [2-octanol] + CNC1CCCCC1 | 817.05 ± 1.6 | 809.43 ± 1.6 | 801.32 ± 1.6 | 793.06 ± 1.6 | 1.42483 ± 0.0016 | 1.42073 ± 0.0016 | 1.41648 ± 0.0016 | 1.41224 ± 0.0016 |  |  |  |  |  |  |  | 
